Test results: ChEMBL document CHEMBL4190267, “Discovery of potent molecular chimera (CM358) to treat human metastatic melanoma” (Eur J Med Chem, 2017)
The source made the active and inactive calls. The calls are words filed in the database; no cut-off is given here.

Tests used:
WM 266-4 [1] = assay: Growth inhibition of human WM266.4 cells up to 25 uM cotreated with camptothecin measured after 24 hrs by XTT assay; assay type: functional, cell-based
A 172 [2] = assay: Growth inhibition of human A172 cells up to 25 uM cotreated with camptothecin measured after 24 hrs by XTT assay; assay type: functional, cell-based
NCI-H1299 [3] = assay: Growth inhibition of human NCI-H1299 cells up to 25 uM cotreated with camptothecin measured after 24 hrs by XTT assay; assay type: functional, cell-based
PC-3 [4] = assay: Growth inhibition of human PC3 cells up to 25 uM cotreated with camptothecin measured after 24 hrs by XTT assay; assay type: functional, cell-based
MDA-MB-231 [5] = assay: Growth inhibition of human MDA-MB-231 cells up to 25 uM cotreated with camptothecin measured after 24 hrs by XTT assay; assay type: functional, cell-based
A 172 [6] = assay: Growth inhibition of human A172 cells preincubated for 6 hrs cotreated with chlorambucil followed compound washout measured after 24 hrs by XTT assay; assay type: functional
NCI-H1299 [7] = assay: Growth inhibition of human NCI-H1299 cells preincubated for 6 hrs followed compound washout measured after 24 hrs by XTT assay; assay type: functional
WM 266-4 [8] = assay: Cell cycle arrest in human WM266.4 cells assessed as accumulation at G2 phase at 10 uM cotreated with chlorambucil after 2 hrs by propidium iodide staining based flow cytometry (reference value: 11%); assay type: functional
[9] = target: DNA topoisomerase 2-alpha (Homo sapiens) (UniProt P11388); assay: Inhibition of human topoisomerase-2alpha assessed as reduction in enzyme-mediated decatenation at 100 uM using kinetoplast DNA as substrate after 25 mins by ethidium bromide staining based agarose gel electrophoresis method
Sequence of DNA topoisomerase 2-alpha (Homo sapiens) (P11388 whole entry): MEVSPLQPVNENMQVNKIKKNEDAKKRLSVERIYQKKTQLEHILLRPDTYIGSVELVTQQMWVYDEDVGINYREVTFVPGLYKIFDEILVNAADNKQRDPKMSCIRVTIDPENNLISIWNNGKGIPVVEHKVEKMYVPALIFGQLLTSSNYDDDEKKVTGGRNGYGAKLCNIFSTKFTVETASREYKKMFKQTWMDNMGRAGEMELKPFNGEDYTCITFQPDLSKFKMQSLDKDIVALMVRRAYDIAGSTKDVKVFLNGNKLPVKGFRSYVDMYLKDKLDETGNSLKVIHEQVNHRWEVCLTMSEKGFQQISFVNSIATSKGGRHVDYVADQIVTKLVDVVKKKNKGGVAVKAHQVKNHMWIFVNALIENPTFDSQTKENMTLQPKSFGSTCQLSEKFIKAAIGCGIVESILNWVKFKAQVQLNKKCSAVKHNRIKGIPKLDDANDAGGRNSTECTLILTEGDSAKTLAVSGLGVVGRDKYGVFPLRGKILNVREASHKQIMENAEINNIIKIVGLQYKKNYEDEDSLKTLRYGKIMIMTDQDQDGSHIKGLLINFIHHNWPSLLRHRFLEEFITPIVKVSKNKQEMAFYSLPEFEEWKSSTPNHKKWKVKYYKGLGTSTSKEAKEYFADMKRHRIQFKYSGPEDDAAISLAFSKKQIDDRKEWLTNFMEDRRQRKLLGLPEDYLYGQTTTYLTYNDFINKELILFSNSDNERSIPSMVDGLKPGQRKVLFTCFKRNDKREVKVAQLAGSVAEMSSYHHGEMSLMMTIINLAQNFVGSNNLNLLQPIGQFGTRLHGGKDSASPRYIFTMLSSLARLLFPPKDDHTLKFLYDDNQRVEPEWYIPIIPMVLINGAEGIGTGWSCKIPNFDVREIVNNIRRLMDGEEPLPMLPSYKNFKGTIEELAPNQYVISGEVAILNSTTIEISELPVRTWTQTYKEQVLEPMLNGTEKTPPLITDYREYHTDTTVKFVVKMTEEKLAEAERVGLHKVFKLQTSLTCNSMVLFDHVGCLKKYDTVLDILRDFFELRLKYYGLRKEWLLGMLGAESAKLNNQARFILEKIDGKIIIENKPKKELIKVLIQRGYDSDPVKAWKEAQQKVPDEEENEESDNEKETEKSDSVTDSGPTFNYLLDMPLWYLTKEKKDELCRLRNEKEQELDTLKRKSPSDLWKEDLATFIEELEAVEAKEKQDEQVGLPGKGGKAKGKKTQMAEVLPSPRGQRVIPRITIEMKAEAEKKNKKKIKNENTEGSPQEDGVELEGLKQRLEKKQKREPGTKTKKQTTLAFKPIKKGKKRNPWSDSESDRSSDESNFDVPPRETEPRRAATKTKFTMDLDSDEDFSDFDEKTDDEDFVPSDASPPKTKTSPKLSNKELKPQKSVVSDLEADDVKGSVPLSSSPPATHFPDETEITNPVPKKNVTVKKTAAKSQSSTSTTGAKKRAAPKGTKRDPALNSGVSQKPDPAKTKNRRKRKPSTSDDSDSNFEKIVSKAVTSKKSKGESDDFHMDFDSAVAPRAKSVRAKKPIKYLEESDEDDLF

WM 266-4 [10] = assay: Cell cycle arrest in human WM266.4 cells assessed as accumulation at S phase at 10 uM cotreated with chlorambucil after 24 hrs by propidium iodide staining based flow cytometry (reference value: 27%); assay type: functional
PC-3 [11] = assay: Growth inhibition of human PC3 cells preincubated for 6 hrs followed compound washout measured after 24 hrs by XTT assay; assay type: functional
WM 266-4 [12] = assay: Growth inhibition of human WM266.4 cells preincubated for 6 hrs followed compound washout measured after 24 hrs by XTT assay; assay type: functional
WM 266-4 [13] = assay: Cell cycle arrest in human WM266.4 cells assessed as accumulation at G1 phase at 10 uM cotreated with chlorambucil after 8 hrs by propidium iodide staining based flow cytometry (reference value: 59%); assay type: functional
MDA-MB-231 [14] = assay: Growth inhibition of human MDA-MB-231 cells preincubated for 6 hrs cotreated with chlorambucil followed compound washout measured after 24 hrs by XTT assay; assay type: functional
WM 266-4 [15] = assay: (§1) Antitumor activity against human WM266.4 cells xenografted in athymic Foxn1 nu mouse assessed as tumor growth inhibition at 10 mg/kg, ip cotreated with chlorambucil administered once daily for 7 days followed by resting period of 2 days repeated for 4 weeks starting from 5 days post tumor inoculation; assay type: functional, organism-based
[16] = target: DNA topoisomerase 2-alpha (Homo sapiens) (UniProt P11388); assay: Inhibition of human topoisomerase-2alpha assessed as reduction in enzyme-mediated decatenation at 25 uM using kinetoplast DNA as substrate after 25 mins by ethidium bromide staining based agarose gel electrophoresis method
Mus musculus [17] = assay: Toxicity in athymic Foxn1 nu mouse xenografted with human WM266.4 cells assessed as body weight loss at 10 mg/kg, ip cotreated with chlorambucil administered once daily for 3 days followed by resting period of 4 days repeated for 4 weeks starting from 5 days post tumor inoculation; assay type: organism-based; conditions: in vivo
WM 266-4 [18] = assay: Cell cycle arrest in human WM266.4 cells assessed as accumulation at S phase at 10 uM cotreated with chlorambucil after 8 hrs by propidium iodide staining based flow cytometry (reference value: 27%); assay type: functional
WM 266-4 [19] = assay: Cell cycle arrest in human WM266.4 cells assessed as accumulation at G1 phase at 10 uM cotreated with chlorambucil after 2 hrs by propidium iodide staining based flow cytometry (reference value: 59%); assay type: functional
NCI-H1299 [20] = assay: Growth inhibition of human NCI-H1299 cells preincubated for 6 hrs cotreated with chlorambucil followed compound washout measured after 24 hrs by XTT assay; assay type: functional
WM 266-4 [21] = assay: Cell cycle arrest in human WM266.4 cells assessed as accumulation at S phase at 10 uM cotreated with chlorambucil after 2 hrs by propidium iodide staining based flow cytometry (reference value: 27%); assay type: functional
A 172 [22] = assay: Growth inhibition of human A172 cells preincubated for 6 hrs followed compound washout measured after 24 hrs by XTT assay; assay type: functional
WM 266-4 [23] = assay: Cell cycle arrest in human WM266.4 cells assessed as accumulation at G2 phase at 10 uM cotreated with chlorambucil after 24 hrs by propidium iodide staining based flow cytometry (reference value: 11%); assay type: functional
MDA-MB-231 [24] = assay: Growth inhibition of human MDA-MB-231 cells preincubated for 6 hrs followed compound washout measured after 24 hrs by XTT assay; assay type: functional
WM 266-4 [25] = assay: Cell cycle arrest in human WM266.4 cells assessed as accumulation at G2 phase at 10 uM cotreated with chlorambucil after 8 hrs by propidium iodide staining based flow cytometry (reference value: 11%); assay type: functional
Mus musculus [26] = assay: Toxicity in athymic Foxn1 nu mouse xenografted with human WM266.4 cells assessed as body weight loss at 10 mg/kg, ip cotreated with chlorambucil administered once daily for 7 days followed by resting period of 2 days repeated for 4 weeks starting from 5 days post tumor inoculation; assay type: organism-based; conditions: in vivo
WM 266-4 [27] = assay: as §1, with “for 3” for “for 7”, “of 4” for “of 2”; assay type: functional, organism-based
WM 266-4 [28] = assay: Cell cycle arrest in human WM266.4 cells assessed as accumulation at G1 phase at 10 uM cotreated with chlorambucil after 24 hrs by propidium iodide staining based flow cytometry (reference value: 59%); assay type: functional
PC-3 [29] = assay: Growth inhibition of human PC3 cells preincubated for 6 hrs cotreated with chlorambucil followed compound washout measured after 24 hrs by XTT assay; assay type: functional
WM 266-4 [30] = assay: Growth inhibition of human WM266.4 cells preincubated for 6 hrs cotreated with chlorambucil followed compound washout measured after 24 hrs by XTT assay; assay type: functional
WM 266-4 [31] = assay: Growth inhibition of human WM266.4 cells at 25 uM after 24 hrs by XTT assay; assay type: functional, cell-based
MDA-MB-231 [32] = assay: Growth inhibition of human MDA-MB-231 cells up to 25 uM measured after 24 hrs by XTT assay; assay type: functional, cell-based
PC-3 [33] = assay: Growth inhibition of human PC3 cells up to 25 uM measured after 24 hrs by XTT assay; assay type: functional, cell-based
WM 266-4 [34] = assay: Growth inhibition of human WM266.4 cells up to 25 uM measured up to 96 hrs by XTT assay; assay type: functional, cell-based
NCI-H1299 [35] = assay: Growth inhibition of human NCI-H1299 cells up to 25 uM measured after 24 hrs by XTT assay; assay type: functional, cell-based
A 172 [36] = assay: Growth inhibition of human A172 cells up to 25 uM measured after 24 hrs by XTT assay; assay type: functional, cell-based
WM 266-4 [37] = assay: Growth inhibition of human WM266.4 cells up to 25 uM measured after 24 hrs by XTT assay; assay type: functional, cell-based

Compound: COc1cc2c(c(OC)c1OC)-c1ccc(OC)c(=O)cc1[C@@H](NC(C)=O)CC2
- growth inhibition (GI) (WM 266-4 [1]): Active
- growth inhibition (GI) (A 172 [2]): Active
- growth inhibition (GI) (NCI-H1299 [3]): Active
- growth inhibition (GI) (PC-3 [4]): Active
- growth inhibition (GI) (MDA-MB-231 [5]): Active

Compound: CN(C)CCN1C(=O)c2cccc3cc(N)cc(c23)C1=O [AMONAFIDE]
- GI50 (A 172 [6]): > 25 µM
- GI50 (NCI-H1299 [7]): > 25 µM
- Activity (WM 266-4 [8]): 9.8%
- inhibition [9]: Active
- Activity (WM 266-4 [10]): 39%
- GI50 (PC-3 [11]): > 25 µM
- GI50 (WM 266-4 [12]): > 25 µM
- Activity (WM 266-4 [13]): 29%
- GI50 (MDA-MB-231 [14]): > 25 µM
- TGI (WM 266-4 [15]): inactive
- inhibition [16]: inactive
- Activity (Mus musculus [17]): Toxic
- Activity (WM 266-4 [18]): 44.7%
- Activity (WM 266-4 [19]): 63.5%
- GI50 (NCI-H1299 [20]): > 25 µM
- Activity (WM 266-4 [21]): 26%
- GI50 (A 172 [22]): > 25 µM
- Activity (WM 266-4 [23]): 26%
- GI50 (MDA-MB-231 [24]): > 25 µM
- Activity (WM 266-4 [25]): 23%
- Activity (Mus musculus [26]): Toxic
- TGI (WM 266-4 [27]): inactive
- Activity (WM 266-4 [28]): 35%
- GI50 (PC-3 [29]): > 25 µM
- GI50 (WM 266-4 [30]): > 25 µM

Compound: CC(=O)Nc1cc2c3c(cccc3c1)C(=O)N(CCN(C)C)C2=O
- growth inhibition (GI) (WM 266-4 [31]): inactive

Compound: CC[C@@]1(OC(=O)N[C@H]2CCc3cc(OC)c(OC)c(OC)c3-c3ccc(OC)c(=O)cc32)C(=O)OCc2c1cc1n(c2=O)Cc2cc3ccccc3nc2-1
- growth inhibition (GI) (MDA-MB-231 [32]): inactive
- growth inhibition (GI) (PC-3 [33]): inactive
- growth inhibition (GI) (WM 266-4 [34]): inactive
- growth inhibition (GI) (NCI-H1299 [35]): inactive
- growth inhibition (GI) (A 172 [36]): inactive
- growth inhibition (GI) (WM 266-4 [37]): inactive
